Structures can show the parent of a compound that is named as a salt. A value given as a limit tells only on which side of the number the result lay.

The first data set deals with T1, human mGluR3 (hmGluR3) (Homo sapiens, UniProt Q14832).
T1 construct: expressed in transfected cells; host or cells: HEK-293 cells, transient co-transfection by electroporation
T1 sequence (Q14832 23-879): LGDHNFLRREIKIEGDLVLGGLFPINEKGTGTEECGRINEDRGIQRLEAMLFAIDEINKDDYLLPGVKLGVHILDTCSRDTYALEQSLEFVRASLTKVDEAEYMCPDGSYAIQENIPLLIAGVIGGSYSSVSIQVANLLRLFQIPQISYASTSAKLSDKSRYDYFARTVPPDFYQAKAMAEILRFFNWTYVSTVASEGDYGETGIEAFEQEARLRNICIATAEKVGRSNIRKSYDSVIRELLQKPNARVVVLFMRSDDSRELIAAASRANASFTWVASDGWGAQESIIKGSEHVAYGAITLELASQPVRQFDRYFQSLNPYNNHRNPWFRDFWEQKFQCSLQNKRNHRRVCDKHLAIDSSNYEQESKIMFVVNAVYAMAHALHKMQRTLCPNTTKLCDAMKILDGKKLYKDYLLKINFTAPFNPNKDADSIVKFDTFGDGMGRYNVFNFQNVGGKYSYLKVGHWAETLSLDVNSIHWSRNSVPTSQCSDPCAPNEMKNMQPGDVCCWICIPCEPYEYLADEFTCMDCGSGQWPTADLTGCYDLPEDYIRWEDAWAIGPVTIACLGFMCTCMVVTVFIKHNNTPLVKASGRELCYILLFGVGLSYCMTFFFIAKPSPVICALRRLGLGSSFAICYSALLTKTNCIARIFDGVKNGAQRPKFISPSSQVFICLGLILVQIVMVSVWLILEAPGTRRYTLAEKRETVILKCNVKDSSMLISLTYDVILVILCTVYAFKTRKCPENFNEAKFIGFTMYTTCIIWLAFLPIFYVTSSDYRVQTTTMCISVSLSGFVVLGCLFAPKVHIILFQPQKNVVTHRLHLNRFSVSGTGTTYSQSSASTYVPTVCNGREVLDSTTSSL
The data set can be described thus: Human mGluR3 positive allosteric modulator evaluation using Ca++ functional assay. The format is cell-based. The following applies: hmGluR3 transiently over-expressed in HEK-293 cells; cells stimulated by an EC50 glutamate concentration; intracellular Ca2+ (Fluo4AM, FLIPR Tetra). Here is the method: Example 89: Human mGluR3 Positive Allosteric Modulator Evaluation Using Ca++ Functional Assay
Compounds of the present invention were tested successively for their agonist and positive allosteric modulator activities on human mGluR3 (hmGluR3) transiently over-expressed in HEK-293 cells. Compounds exert agonist activity if they are able to activate hmGluR3 by themselves, i.e., in absence of the endogenous agonist glutamate; and they exert positive allosteric modulator activity if they increase the action of the endogenous agonist glutamate.
Cell Culture and Transfection:
HEK-293 cells were maintained in Modified Eagle's Medium supplemented with 10% Foetal Calf Serum, 1% Penicillin/Streptomycin and 1% non-essential amino acids at 37° C./5% CO2. Cells were co-transfected by electroporation with four DNA plasmids encoding hmGluR3, a chimeric G protein allowing redirection of the activation signal toward intracellular calcium pathway, and two glutamate transporters so as to decrease extracellular glutamate levels and avoid receptor desensitization (Brabet I et al., Neuropharmacology 37(8), 1043-51, 1998). After transfection, cells were seeded in 75 cm^2 culture flasks, and cultured for 24 h.
Calcium Assa EC50 determination:
Receptor activity was detected by changes in intracellular calcium measured using the fluorescent Ca^2+ sensitive dye, Fluo4AM (Molecular Probes).
The day of the assay, medium was aspirated and replaced during 3 hrs by freshly prepared buffer B (HBSS 1×, Hepes 20 mM, MgSO4-7H2O 1 mM, Na2CO3 3.3 mM, CaCl2-2H2O 1.3 mM, 0.5% BSA, Probenecid 2.5 mM). Then, cells were loaded at 37° C./5% CO2 for 1.5 hrs with buffer B containing 1 μM Fluo4AM, 0.1 mg/mL Pluronic Acid, 7 μg/mL Glutamate Pyruvate Transaminase and 2 mM sodium pyruvate. Afterwards cells were washed with buffer B. Cells were then detached from the 75 cm^2 culture flasks with Accutase® (5 min incubation at 37° C.), centrifuged (5 min at 840 rpm), resuspended in buffer B and finally seeded at a density of 30,000 cells/well in black-walled clear-bottom 384-well plates. Addition of compounds on cells and intracellular Ca^2+ measurements (excitation 485 nm, emission 525 nm) were performed by the fluorescence microplate reader FLIPR Tetra (Molecular Devices).
Agonist and positive allosteric modulator activities of compounds were consecutively evaluated on the same cells plate. Agonist activity was first tested during 10 min with the addition of compound alone on the cells. Then, the cells were stimulated by an EC50 glutamate concentration and fluorescence was recorded for additional 3 min. EC50 glutamate concentration is the concentration giving 50% of the maximal glutamate response. Agonist and/or positive allosteric modulator activity(ies) were evaluated in comparison to basal signal or signal evoked by EC50 glutamate concentration alone, respectively.
For potency determination, a dose-response test was performed using 20 concentrations of each compound of the invention. Dose-response curves were fitted using the sigmoïdal dose-response (variable slope) analysis in XLfit Scientific Curve Fitting for Excel (IDBS). EC50 of agonist/EC50 of positive allosteric modulator activity(ies) were calculated. Dose-response experiments were all performed in duplicate, two times independently.
The EC50 is the concentration that produces a half-maximal response. A high value points to lower potency in that assay. With `COCn1cc2c(n1)C(=O)N(C)Cc1ccc(-c3cccnc3C)cc1-2` [Example 65, 2-Methoxymethyl-5-methyl-9-(2-methyl-pyridin-3-yl)-5,6-dihydro-2H-2,3,5-triaza-benzo[e]azulen-4-one], the 50% effective concentration (EC50) fell in the range of 100 to 1000 nM.
Same read-out and setting: under `COCn1cc2c(n1)C(=O)N(C)Cc1ccc(-c3ccc(F)nc3)cc1-2` [Example 66, 2-Methoxymethyl-5-methyl-9-(6-fluoro-pyridin-3-yl)-5,6-dihydro-2H-2,3,5-triaza-benzo[e]azulen-4-one] stands 100 to 1000 nM; under `Cc1ncccc1-c1ccc2c(c1)-c1cn(C)nc1C(=O)N(C)C2` [Example 68, 2,5-Dimethyl-9-(2-methyl-pyridin-3-yl)-5,6-dihydro-2H-2,3,5-triaza-benzo[e]azulen-4-one], 1000 to 10000 nM.
The same measure, in the same setting: the result for `COCCn1cc2c(n1)C(=O)N(C)Cc1ccc(-c3cccnc3C)cc1-2` [Example 72, 2-(2-Methoxy-ethyl)-5-methyl-9-(2-methyl-pyridin-3-yl)-5,6-dihydro-2H-2,3,5-triaza-benzo[e]azulen-4-one] reads 1000 to 10000 nM; that for `COCn1cc2c(n1)C(=O)N(C)C1(CC1)c1ccc(-c3ccc(F)cn3)cc1-2` [Example 76, 2-(Methoxymethyl)-5-methyl-9-(5-fluoro-pyridin-2-yl)-2H-spiro[benzo[c]pyrazolo[4,3-e]azepine-6,1′-cyclopropan]-4(5H)-one], less than 100 nM.

Tested on in another data set: not given
Experiment: not given
Conditions: not given
As a reminder, the melting point is the temperature of the solid-liquid transition. As for `Cc1ncccc1-c1cnc2c(c1)-n1cccc1C(=O)N(C)C2` (as salt: hydrochloride) [Example 6, 5-Methyl-9-(2-methyl-pyridin-3-yl)-5,6-dihydro-5,7,10b-triaza-benzo[e]azulen-4-one, dihydrochloride], the melting point was more than 250 °C.
The same measure, in the same setting: under `Cc1ncccc1-c1cnc2c(n1)-n1cccc1C(=O)N(C)C2` (as salt: hydrochloride) [Example 7, 5-Methyl-9-(2-methyl-pyridin-3-yl)-5,6-dihydro-5,7,10,10b-tetraaza-benzo[e]azulen-4-one, dihydrochloride] stands more than 250 °C; under `Cc1ncccc1-c1cc2c(nn1)CN(C)C(=O)c1cccn1-2` (as salt: hydrochloride) [Example 8, 5-Methyl-9-(2-methyl-pyridin-3-yl)-5,6-dihydro-5,7,8,10b-tetraaza-benzo[e]azulen-4-one, dihydrochloride], more than 250 °C; under `Cc1ncccc1-c1ccc2c(c1)-c1ccccc1C(=O)N(C)C21CC1` (as salt: hydrochloride) [Example 21, 10-(2-Methyl-pyridin-3-yl)-6-methyl-6,7-dihydro-spiro[dibenzo[c,e]azepine-7,1′-cyclopropan]-5-one, hydrochloride], more than 250 °C.
Same read-out and setting: under `COCn1cc2c(n1)C(=O)N(C)C1(CC1)c1ccc(-c3ccc(F)nc3)cc1-2` [Example 75, 2-(Methoxymethyl)-5-methyl-9-(6-fluoro-pyridin-3-yl)-2H-spiro[benzo[c]pyrazolo[4,3-e]azepine-6,1′-cyclopropan]-4(5H)-one] stands 198 to 200 °C; under `COCn1cc2c(n1)C(=O)N(C)C1(CC1)c1ccc(-c3ccc(F)cn3)cc1-2` [Example 76, 2-(Methoxymethyl)-5-methyl-9-(5-fluoro-pyridin-2-yl)-2H-spiro[benzo[c]pyrazolo[4,3-e]azepine-6,1′-cyclopropan]-4(5H)-one], 219 to 223 °C.

For the origin of these results see patent publication US11472806B2, “Substituted heterocyclic compounds as allosteric modulators of group II metabotropic glutamate receptors” (Domain Therapeutics, priority 2017, dated 2022).
